pIC50: −log10 of the molar value.
Target: PIK3CG (human) (UniProt P48736)
Experiment: Assessment of PIK3CG Kinase Activity

Sequence of PIK3CG (human) (P48736 whole entry, looked up): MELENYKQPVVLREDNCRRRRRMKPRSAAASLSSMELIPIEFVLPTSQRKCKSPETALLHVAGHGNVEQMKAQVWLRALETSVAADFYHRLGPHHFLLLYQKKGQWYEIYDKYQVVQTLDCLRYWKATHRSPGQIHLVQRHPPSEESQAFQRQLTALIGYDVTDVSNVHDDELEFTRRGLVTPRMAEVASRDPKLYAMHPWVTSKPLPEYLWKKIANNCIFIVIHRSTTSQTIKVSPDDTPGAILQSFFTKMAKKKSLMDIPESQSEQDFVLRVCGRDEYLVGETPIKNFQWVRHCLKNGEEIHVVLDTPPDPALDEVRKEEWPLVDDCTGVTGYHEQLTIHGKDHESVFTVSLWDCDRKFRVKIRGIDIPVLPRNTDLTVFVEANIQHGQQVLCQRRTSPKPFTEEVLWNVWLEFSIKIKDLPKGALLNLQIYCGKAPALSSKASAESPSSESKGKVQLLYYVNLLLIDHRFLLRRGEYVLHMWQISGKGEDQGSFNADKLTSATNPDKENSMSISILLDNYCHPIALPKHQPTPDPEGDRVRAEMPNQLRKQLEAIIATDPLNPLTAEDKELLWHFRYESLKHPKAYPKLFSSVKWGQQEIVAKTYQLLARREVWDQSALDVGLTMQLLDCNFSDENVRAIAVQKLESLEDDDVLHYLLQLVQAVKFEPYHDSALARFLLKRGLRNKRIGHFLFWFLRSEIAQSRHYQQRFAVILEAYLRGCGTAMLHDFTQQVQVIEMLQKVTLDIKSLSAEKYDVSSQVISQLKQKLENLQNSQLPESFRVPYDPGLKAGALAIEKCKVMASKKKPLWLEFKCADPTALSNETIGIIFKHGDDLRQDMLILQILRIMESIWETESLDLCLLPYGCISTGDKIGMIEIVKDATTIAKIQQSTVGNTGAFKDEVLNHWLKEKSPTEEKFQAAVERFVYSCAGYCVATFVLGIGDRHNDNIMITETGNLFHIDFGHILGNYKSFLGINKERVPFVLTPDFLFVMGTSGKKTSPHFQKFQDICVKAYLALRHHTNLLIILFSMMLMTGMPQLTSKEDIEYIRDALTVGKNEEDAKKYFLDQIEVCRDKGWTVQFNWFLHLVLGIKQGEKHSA

| pIC50 | SMILES |
| --- | --- |
| > 6.10 | CC(=O)Nc1nc2c(s1)-c1c(cnn1-c1cccc([N+](=O)[O-])c1)CC2 |
| > 6.10 | CC(=O)Nc1nc2c(s1)-c1c(c(-c3ccoc3)nn1-c1ccccc1C)CC2 |
| > 6.10 | CC(=O)Nc1nc2c(s1)-c1c(c(-c3cn(C)cn3)nn1-c1ccccc1C)CC2 |
| > 6.10 | CC(=O)Nc1nc2c(s1)-c1c(cnn1-c1ccc(C(=O)N[C@@H](CCC(=O)O)C(N)=O)cc1Cl)CC2 |
| > 6.10 | CC(=O)Nc1nc2c(s1)-c1c(cnn1C(C)C)CC2 |
| > 6.10 | CC(=O)Nc1nc2c(s1)-c1c(cnn1CCC(C)C)CC2 |
| > 6.10 | CC(=O)Nc1nc2c(s1)-c1c(cnn1-c1ccc(C(=O)Nc3ccc(C4CCN(C)CC4)cc3)cc1)CC2 |
| > 6.10 | CC(=O)Nc1nc2c(s1)-c1c(cnn1-c1ccc(C(=O)N3CCOCC3)cc1)CC2 |
| > 6.10 | CC(=O)Nc1nc2c(s1)-c1c(cnn1-c1ccc(C(=O)N[C@@H]3CCOC3=O)cc1)CC2 |
| > 6.10 | CC(=O)Nc1nc2c(s1)-c1c(cnn1-c1ccc(CC(=O)N(C)CC(=O)N(C)C)cc1)CC2 |
| > 6.10 | CC(=O)Nc1nc2c(s1)-c1c(cnn1-c1ccc(C(=O)Nc3nc4ccccc4[nH]3)cc1)CC2 |
| > 6.10 | CC(=O)Nc1nc2c(s1)-c1c(cnn1-c1ccc(C(=O)N[C@H]3CC[C@H](N4CCOCC4)CC3)cc1)CC2 |
| > 6.10 | CCOC(=O)c1n[nH]c2c1CCc1nc(NC(C)=O)sc1-2 |
| > 6.10 | CC(=O)Nc1nc2c(s1)-c1nn(C(=O)c3ccc(Cl)cc3)cc1CC2 |
| > 6.10 | CC(=O)Nc1nc2c(s1)-c1c(cnn1CCc1ccccc1)CC2 |
| > 6.10 | CC(=O)Nc1nc2c(s1)-c1c(cnn1-c1ccc(C(=O)NCCCCCCN)cc1)CC2 |
| > 6.10 | CC(=O)Nc1nc2c(s1)-c1c(cnn1-c1ccc(C(=O)NCCCn3ccnc3)cc1)CC2 |
| > 6.10 | CC(=O)Nc1nc2c(s1)-c1c(c(C(C)C)nn1-c1ccc(C(=O)O)cc1Cl)CC2 |
| > 6.10 | CC(=O)Nc1nc2c(s1)-c1nc(-n3cccn3)ncc1CC2 |
| > 6.10 | CC(=O)Nc1nc2c(s1)-c1c(c(C(C)C)nn1-c1ccc(C(=O)NC3CCN(C)CC3)cc1Cl)CC2 |
| > 6.10 | CC(=O)Nc1nc2c(s1)-c1nc(-c3cccc(C)c3)ncc1CC2 |
| > 6.10 | CC(=O)Nc1nc2c(s1)-c1c(cnn1-c1ccc(C(=O)N(C)Cc3nccn3C)cc1)CC2 |
| > 6.10 | CC(=O)Nc1nc2c(s1)-c1c(cnn1-c1ccc(C(=O)N[C@H]3CC[C@H](N)CC3)cc1)CC2 |
| > 6.10 | CC(=O)Nc1nc2c(s1)-c1c(cnn1-c1ccc(C(=O)N3CCC[C@H]3C(=O)O)cc1)CC2 |
| > 6.10 | CC(=O)Nc1nc2c(s1)-c1c(cnn1-c1ccc(S(C)(=O)=O)cc1)CC2 |

| pIC50 | SMILES |
| --- | --- |
| > 6.10 | CC(=O)Nc1nc2c(s1)-c1c(c(-c3ccco3)nn1-c1ccc(C(=O)N[C@H]3CC[C@H](N4CCCC4)CC3)cc1Cl)CC2 |
| > 6.10 | COc1ccccc1-n1ncc2c1-c1sc(NC(C)=O)nc1C2 |
| > 6.10 | CC(=O)Nc1nc2c(s1)-c1nn(C3C=CCCC3)cc1CC2 (centres undefined) |
| > 6.10 | CC(=O)Nc1nc2c(s1)-c1c(cnn1-c1ccc(C(=O)N[C@H](CCCCNC(=N)N)C(N)=O)cc1Cl)CC2 |
| > 6.10 | CC(=O)Nc1nc2c(s1)-c1c(cnn1-c1ccccc1C)C2 |
| > 6.10 | CC(=O)Nc1nc2c(s1)-c1c(cnn1C1C=CCCC1)CC2 (centres undefined) |
| > 6.10 | CC(=O)Nc1nc2c(s1)-c1c(cnn1-c1ccc(C(=O)N3CCc4[nH]cnc4C3)cc1)CC2 |
| > 6.10 | CC(=O)Nc1nc2c(s1)-c1c(cnn1-c1ccc(CC(=O)N(C)C)cc1)CC2 |
| > 6.10 | CC(=O)Nc1nc2c(s1)-c1nc(-c3ccccc3)ncc1CC2 |
| > 6.10 | CC(=O)Nc1nc2c(s1)-c1c(c(-c3ccccc3)nn1-c1ccccc1C)CC2 |
| > 6.10 | CC(=O)Nc1nc2c(s1)-c1nn(C(N)=O)cc1CC2 |
| > 6.10 | CC(=O)Nc1nc2c(s1)-c1c(cnn1-c1ccc(CC(=O)NCCCN3CCOCC3)cc1)CC2 |
| > 6.10 | COCc1nn(-c2ccc(C(=O)NC3CCN(C)CC3)cc2Cl)c2c1CCc1nc(NC(C)=O)sc1-2 |
| > 6.10 | CN(C)CCCC(=O)Nc1nc2c(s1)-c1c(cnn1-c1ccccc1)CC2 |
| > 6.10 | CC(=O)Nc1nc2c(s1)-c1c(cnn1-c1cc(Cl)ccc1Cl)CC2 |
| > 6.10 | CC(=O)Nc1nc2c(s1)-c1c(c([C@H]3CCCO3)nn1-c1ccc(C(=O)N[C@H]3CC[C@@H](N4CCCC4)CC3)cc1Cl)CC2 |
| > 6.10 | CNC(=O)Nc1nc2c(s1)-c1c(cnn1-c1ccccc1)CC2 |
| > 6.10 | CC(=O)Nc1nc2c(s1)-c1c(cnn1-c1ccc(Cl)cc1)CC2 |
| > 6.10 | CC(=O)Nc1nc2c(s1)-c1c(cnn1-c1ccc(C(=O)N[C@@H](Cc3cccnc3)C(N)=O)cc1Cl)CC2 |
| > 6.10 | CC(=O)Nc1nc2c(s1)-c1nn(-c3ccc(C(=O)N[C@H]4CC[C@H](N5CCCC5)CC4)cc3)c(-c3ccco3)c1CC2 |
| > 6.10 | CCc1ccccc1-n1ncc2c1-c1sc(NC(C)=O)nc1C2 |
| > 6.10 | CC(=O)Nc1nc2c(s1)-c1c(cnn1-c1ccc(C(=O)N[C@H]3CC[C@H](N(C)C)CC3)cc1)CC2 |
| > 6.10 | COC(=O)c1nn(-c2ccccc2F)c2c1CCc1nc(NC(C)=O)sc1-2 |
| > 6.10 | COC(=O)c1nn(-c2ccc(C)cc2)c2c1CCc1nc(NC(C)=O)sc1-2 |
| > 6.10 | CC(=O)Nc1nc2c(s1)-c1c(cnn1C(=O)c1ccccc1)CC2 |

| pIC50 | SMILES |
| --- | --- |
| > 6.10 | CC(=O)Nc1nc2c(s1)-c1nc(NCCCC(=O)O)ncc1CC2 |
| > 6.10 | CC(=O)Nc1nc2c(s1)-c1c(cnn1-c1ccc(C(=O)N[C@H](CCC(=O)O)C(N)=O)cc1Cl)CC2 |
| > 6.10 | CC(=O)Nc1nc2c(s1)-c1c(cnn1-c1ccccc1C(C)C)C2 |
| > 6.10 | CC(=O)Nc1nc2c(s1)-c1c(cnn1-c1ccc(C(=O)N3CCC(N)CC3)cc1)CC2 |
| > 6.10 | CC(=O)Nc1nc2c(s1)-c1c(cnn1-c1ccc(C(=O)N[C@@H](CCS(C)(=O)=O)C(N)=O)cc1Cl)CC2 |
| > 6.10 | CC=Cn1cc2c(n1)-c1sc(NC(C)=O)nc1CC2 |
| > 6.10 | CCN(CC)C(=O)C1CCCCN1C(=O)c1ccc(-n2ncc3c2-c2sc(NC(C)=O)nc2CC3)cc1 (centres undefined) |
| > 6.10 | CC(=O)Nc1nc2c(s1)-c1c(cnn1-c1ccc(C(=O)N[C@H]3CC[C@H](N(Cc4ccccc4)Cc4ccccc4)CC3)cc1)CC2 |
| > 6.10 | CC(=O)Nc1nc2c(s1)-c1c(cnn1-c1ccc(C(=O)N3C[C@@H](C)O[C@@H](C)C3)cc1)CC2 |
| > 6.10 | CC(=O)Nc1nc2c(s1)-c1c(c(C)nn1-c1ccccc1)CC2 |
| > 6.10 | CC(=O)Nc1nc2c(s1)-c1nc(N3CCCC3=O)ncc1CC2 |
| > 6.10 | CC(=O)Nc1nc2c(s1)-c1c(c(-c3ccccn3)nn1-c1ccccc1C)CC2 |
| > 6.10 | CCSc1ncc2c(n1)-c1sc(NC(C)=O)nc1CC2 |
| > 6.10 | CC(=O)Nc1nc2c(s1)-c1c(cnn1-c1ccc(C(=O)N[C@H](CC(=O)O)C(N)=O)cc1Cl)CC2 |
| > 6.10 | O=C(CO)Nc1nc2c(s1)-c1c(cnn1-c1ccccc1)CC2 |
| > 6.10 | CC(=O)Nc1nc2c(s1)-c1c(cnn1-c1ccccc1Cl)CC2 |
| > 6.10 | CC(=O)Nc1nc2c(s1)-c1nc(N3CCCC(CNC(=O)OC(C)(C)C)C3)ncc1CC2 (centres undefined) |
| > 6.10 | CC(=O)Nc1nc2c(s1)-c1nc(N(CCN(C)C)C(C)=O)ncc1CC2 |
| > 6.10 | CN(C)c1ncc2c(n1)-c1sc(N)nc1CC2 |
| > 6.10 | CC(=O)Nc1nc2c(s1)-c1c(cnn1-c1ccccc1Br)C2 |
| > 6.10 | CC(C)c1nn(-c2ccccc2Cl)c2c1CCc1nc(NC(N)=O)sc1-2 |
| > 6.10 | CNC(=O)c1ccc(-n2nc(-c3ccco3)c3c2-c2sc(NC(C)=O)nc2CC3)c(Cl)c1 |
| > 6.10 | CC(=O)Nc1nc2c(s1)-c1c(cnn1-c1ccc(C(=O)NC3CCOC3=O)cc1)CC2 (centres undefined) |
| > 6.10 | CC(=O)Nc1nc2c(s1)-c1c(cnn1-c1ccc(C(=O)Nc3ccc(N4CCN(C)CC4)cc3)cc1Cl)CC2 |
| > 6.10 | CC(=O)Nc1nc2c(s1)-c1nc(N3CCCCC3)ncc1CC2 |

| pIC50 | SMILES |
| --- | --- |
| > 6.10 | O=C(CCN1CCCCC1)Nc1nc2c(s1)-c1c(cnn1-c1ccccc1)CC2 |
| > 6.10 | CCCn1ncc2c1-c1sc(NC(C)=O)nc1CC2 |
| > 6.10 | CC(=O)Nc1nc2c(s1)-c1c(cnn1-c1ccc(C(=O)NCCCCCCNC(=O)Cc3ccccc3)cc1)CC2 |
| > 6.10 | CC(=O)Nc1nc2c(s1)-c1c(cnn1-c1ccc(C(=O)N3CCCC(CO)C3)cc1)CC2 (centres undefined) |
| > 6.10 | CC(=O)Nc1nc2c(s1)-c1c(cnn1-c1ccc(C(=O)N(C)Cc3cnn(C)c3)cc1)CC2 |
| > 6.10 | CC(=O)Nc1nc2c(s1)-c1c(cnn1-c1ccc(C(=O)N3CCOCC3)cc1Cl)CC2 |
| > 6.10 | CC(=O)Nc1nc2c(s1)-c1c(cnn1-c1ccc(N3C4CCC3CC(O)C4)cc1)CC2 (centres undefined) |
| > 6.10 | CC(=O)Nc1nc2c(s1)-c1c(cnn1-c1ccc(C(=O)N[C@H]3CC[C@H](N4CCN(C)CC4)CC3)cc1)CC2 |
| > 6.10 | COCc1nn(-c2ccccc2C(F)(F)F)c2c1CCc1nc(NC(C)=O)sc1-2 |
| > 6.10 | CC(=O)Nc1nc2c(s1)-c1c(cnn1-c1ccc(CC(=O)N3CCN(c4ccccn4)CC3)cc1)CC2 |
| > 6.10 | CC(=O)Nc1nc2c(s1)-c1nc(C(C)C)nc(O)c1CC2 |
| > 6.10 | CC(=O)Nc1nc2c(s1)-c1c(c(N)nn1-c1ccccc1Cl)CC2 |
| > 6.10 | CC(=O)Nc1nc2c(s1)-c1nn(-c3ccccc3)c(-c3cn(C)cn3)c1CC2 |
| > 6.10 | CC(=O)Nc1nc2c(s1)-c1c(cnn1-c1ccc(C#N)cc1)CC2 |
| > 6.10 | CC(=O)Nc1nc2c(s1)-c1c(cnn1C1CCN(C(=O)C(F)(F)F)CC1)CC2 |
| > 6.10 | CC(=O)Nc1nc2c(s1)-c1c(c(C)nn1-c1ccccc1Cl)CC2 |
| > 6.10 | CC(=O)Nc1nc2c(s1)-c1c(cnn1-c1cc(C)ccc1C)CC2 |
| > 6.10 | CC(=O)Nc1nc2c(s1)-c1c(cnn1-c1ccc(S(=O)(=O)N(C)CCN(C)C)cc1)CC2 |
| > 6.10 | CC(=O)Nc1nc2c(s1)-c1c(cnn1-c1ccc(CC(=O)N(C)CC(C)O)cc1)CC2 (centres undefined) |
| > 6.10 | CC(=O)Nc1nc2c(s1)-c1c(cnn1C(N)=O)CC2 |
| > 6.10 | CC(=O)Nc1nc2c(s1)-c1nc(-c3ccc(O)cc3)ncc1CC2 |
| > 6.10 | CC(=O)Nc1nc2c(s1)-c1c(c(C(N)=O)nn1-c1ccccc1Cl)CC2 |
| > 6.10 | CC(=O)Nc1nc2c(s1)-c1nc(N3CCOCC3)ncc1CC2 |

| SMILES | pIC50 |
| --- | --- |
| CC(=O)Nc1nc2c(s1)-c1c(c(NC(=O)Oc3ccccc3)nn1-c1ccccc1Cl)CC2 | > 6.10 |
